# Measurements reported in patent publication US8618138B2, “Indole amide derivatives and related compounds for use in the treatment of neurodegenerative diseases” (Katholieke Universiteit Leuven, K.U. Leuven R&D, priority 2009, dated 2013).
# System: M17-TAU P301L cells
# Assay: TAU cytotoxicity assay: LDH leakage of retinoic acid incubated M17-TAU P301L cells
# Assay type: cell-based, human
# Settings: Homo sapiens, 168 h, reduction of LDH activity of retinoic acid incubated M17-TAU P301L cells, 7 days
# From the text: A TAU expression plasmid was constructed by sub-cloning the cDNA of human TAU-P301 L (encoding for TAU with proline 301 substituted by a leucine residue) into mammalian expression vector pcDNA3.1 resulting in plasmid pcDNA3.1-TAU P301L. Plasmids pcDNA3.1 and pcDNA3.1-TAU P301L were transfected to human neuroblastoma cells ([…]; ATCC No. CRL-2267) and independent clonal lines with the plasmids stably integrated into the genome were selected. […] Expression of the TAU P301L genes in the cell lines was confirmed by Western analysis.
# In degenerated or dead cells lactate dehydrogenase (LDH) is leaked out of the cells into the extracellular environment due to a loss of plasma-membrane integrity. This principle was used to determine cytotoxicity by quantifying the level of leaked LDH into the growth medium.
# The detailed method for determining TAU cytotoxicity was as follows: From appropriate precultures of M17-3.1 and M17-TAU(P301L) cells were seeded at 2500 cells/cm2 in Optimem Reduced Serum without phenol red (Gibco, Cat. 31985-047) supplemented with 1% fetal calf serum, 1 mM sodium pyruvate, 1× non-essential amino acids, 500 μg/ml G418 0.5× antibiotic/antimycotic. After 3 h of incubation at 37° C./5% CO2 1 volume of Optimem Reduced Serum (same as described above; except without fetal calf serum) supplemented with 2.5 μM retinoic acid (RA) was added. The cells were further incubated for 7 days. Subsequently, LDH activity was determined using Promega Cytotox 96 Non-Radioactive cytotoxicity assay, (Cat. G1780) according the supplier's instructions.
# The M17-TAU P301L cell line made it possible to assess the ability of novel compounds to counteract TAU cytotoxicity. […] These measurements were used to calculate EC50 values of table 2.
# Exemplary compounds of the present invention are shown in table 2, with their chemical name and their EC50 value (expressed in nM) as determined from example 196 in the Tau-induced toxicity experiment.
row,SMILES,EC50 [nM]
1,"O=C(NCCc1c[nH]c2ccc(Cl)cc12)c1nnc(C2CCCCC2)o1 [Example D77, N-(2-(5-chloro-1H-indol-3-yl)ethyl)-5-cyclohexyl-1,3,4-oxadiazole-2-carboxamide]",595
2,"Cn1cc(CCNC(=O)c2cc(Cc3cccc(F)c3)on2)c2cc(Cl)ccc21 [Example D51, N-(2-(5-chloro-1-methyl-1H-indol-3-yl)ethyl)-5-(3-fluorobenzyl)isoxazole-3-carboxamide]",157
3,"O=C(NCCc1c[nH]c2ccc(Cl)cc12)C1CC(c2ccccc2)=NO1 (centres unmarked) [Example D50, N-(2-(5-chloro-1H-indol-3-yl)ethyl)-3-phenyl-4,5-dihydroisoxazole-5-carboxamide]",151
4,"O=C(NCCc1n[nH]c2ccccc12)c1cc(Cc2cc(F)ccc2F)on1 [Example D166, N-(2-(1H-indazol-3-yl)ethyl)-5-(2,5-difluorobenzyl)isoxazole-3-carboxamide]",631
5,"Cc1cc2c(CCNC(=O)c3cc(Cc4cc(F)ccc4F)on3)c[nH]c2cc1Cl [Example D136, N-(2-(6-chloro-5-methyl-1H-indol-3-yl)ethyl)-5-(2,5-difluorobenzyl)isoxazole-3-carboxamide]",741
6,"COc1ccccc1Cc1nc(C(=O)NCCc2c[nH]c3ccc(Cl)cc23)no1 [Example D183, N-(2-(5-chloro-1H-indol-3-yl)ethyl)-5-(2-methoxybenzyl)-1,2,4-oxadiazole-3-carboxamide]",47
7,"O=C(NCCc1c[nH]c2ccc(Cl)cc12)C1=N[C@H](Cc2ccccc2)CO1 [Example D81, (R)-4-benzyl-N-(2-(5-chloro-1H-indol-3-yl)ethyl)-4,5-dihydrooxazole-2-carboxamide]",917
8,"O=C(NCCc1c[nH]c2ccc(Cl)cc12)c1cc(Cc2cccc(F)c2)on1 [Example D23, N-(2-(5-chloro-1H-indol-3-yl)ethyl)-5-(3-fluorobenzyl)isoxazole-3-carboxamide]",30
9,"Cc1nc(C(=O)NCCc2c[nH]c3ccc(Cl)cc23)c(C)o1 [Example D116, N-(2-(5-chloro-1H-indol-3-yl)ethyl)-2,5-dimethyloxazole-4-carboxamide]",306
10,"Cc1ccc(-c2cc(C(=O)NCCc3c[nH]c4ccc(Cl)cc34)no2)cc1 [Example D57, N-(2-(5-chloro-1H-indol-3-yl)ethyl)-5-p-tolylisoxazole-3-carboxamide]",195
11,"Cc1ccccc1N1CCC(C(=O)NCCc2c[nH]c3ccc(Cl)cc23)C1=O (centres unmarked) [Example D158, N-(2-(5-chloro-1H-indol-3-yl)ethyl)-2-oxo-1-o-tolylpyrrolidine-3-carboxamide]",1030
12,"O=C(NCCc1c[nH]c2ccc(Cl)cc12)c1cc(C2CCCCC2)on1 [Example D13, N-(2-(5-chloro-1H-indol-3-yl)ethyl)-5-cyclohexylisoxazole-3-carboxamide]",18
13,"O=C(NCCc1c[nH]c2ccc(Cl)cc12)c1cc(-c2ccc(Cl)cc2)oc1C(F)(F)F [Example D68, N-(2-(5-chloro-1H-indol-3-yl)ethyl)-5-(4-chlorophenyl)-2-(trifluoromethyl)furan-3-carboxamide]",337
14,"O=C(NCCc1c[nH]c2ccc(Cl)cc12)c1noc(Cc2ccc(F)cc2F)n1 [Example D189, N-(2-(5-chloro-1H-indol-3-yl)ethyl)-5-(2,4-difluorobenzyl)-1,2,4-oxadiazole-3-carboxamide]",15
15,"Cc1ccc(N2CCC(C(=O)NCCc3c[nH]c4ccc(Cl)cc34)C2)cc1 (centres unmarked) [Example D165, N-(2-(5-chloro-1H-indol-3-yl)ethyl)-1-p-tolylpyrrolidine-3-carboxamide]",188
16,"O=C(NCCc1c[nH]c2ccc(Cl)cc12)c1csc(-c2ccccc2)n1 [Example D67, N-(2-(5-chloro-1H-indol-3-yl)ethyl)-2-phenylthiazole-4-carboxamide]",333
17,"O=C(NCc1c[nH]c2ccc(Cl)cc12)c1cc(Cc2cccc(F)c2)on1 [Example D34, N-((5-chloro-1H-indol-3-yl)methyl)-5-(3-fluorobenzyl)isoxazole-3-carboxamide]",59
